Data: US10329324B2 (viDA Therapeutics Inc., priority 2013, dated 2019)
pIC50: −log10 of the molar value. Where a name gives a salt, the structure may show the parent alone. Read-outs that look alike come from different tables or passages of the source.

Experiments:
human Granzyme B (hGzmB) = target: T1, human Granzyme B (hGzmB) (Homo sapiens, UniProt P10144); experiment: Human Granzyme B enzymatic inhibition assay (fluorogenic, kinetic); type: biochemical; conditions: activity codes, Table 7; read-out: IC50 Activity Range
T1 construct: purchased Froelich Lab, Northshore University Health Systems Research Institute, Evanston, Ill., USA
In short: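 Human Granzyme B preincubated with compound for 30 min total (5 min shaking, 20 min bench, then reaction temperature). Fluorogenic substrate added and read kinetically, 25 cycles at 1-min intervals. Percent inhibition at one or two concentrations or 8–12-point 3-fold dose response from 20 uM, replicates, with IC50 by non-linear regression.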

[1] = Kinetic solubility determination in PBS; type: physicochemical; conditions: phosphate buffered saline (PBS 1×), 21 °C, pH 7.4, aqueous buffer, kinetic from dmso stock, PBS 1X pH 7.4, 2.0% DMSO, 24 hour incubation at ambient temperature
Method: Kinetic solubility buffer (phosphate buffered saline (PBS, 1×) at pH 7.4) was prepared from PBS (10×) solution, (Fisher Scientific, Pittsburgh, Pa., USA, 10×), by adding PBS (50 mL, 10×) to approximately water (450 mL HPLC grade). The volume of the solution was then adjusted to 500 mL for a total dilution factor of 1:10 and a final PBS concentration of 1×. The pH of the final solution (PBS (1×)) was measured and found to be 7.4.
A DMSO stock solution (typically 10 mM or greater) was used for each compound to be tested. A final DMSO concentration of 2.0% and maximum theoretical compound concentration of typically 200 μM (or greater) was achieved by diluting an aliquot (6 μl) of each stock with kinetic solubility buffer (294 μl, PBS (1×) at pH 7.4) using a liquid handling system (Hamilton STARlet, Hamilton Robotics, Inc., Reno, Nev., USA) and incubated directly in a solubility filter plate (Millipore, Billerica, Mass., USA). Following 24 hour incubation at ambient temperature (20.5-21.7° C.), each sample was vacuum filtered. The filtrate was injected into the chemiluminescent nitrogen detector for quantification (Automated Discovery Workstation, Analiza, Inc., Cleveland, Ohio, USA). Each result was reported both in μM and μg/mL units. Three separate on-board performance indicating standards were assayed in triplicate with each test compound to ensure test results were within the acceptable range.
The equimolar nitrogen response of the detector was calibrated using standards which spanned the dynamic range of the instrument from 0.08 to 4500 μg/ml nitrogen. Each filtrate was quantified with respect to this calibration curve. Each calculated solubility value was corrected for background nitrogen present in the DMSO, and buffer used to prepare each sample. All reported values for samples containing adjacent nitrogen atoms in a ring structure were corrected for the expected non-equimolar response. Each calculated solubility result assumed that each sample was free of nitrogen containing impurities and was stable under the assay conditions. Analyses were performed at Analiza Inc. (Cleveland, Ohio, USA) by published methods (Bhattachar, S. N., et al, J. Pharma. BioMed Anal. 41:152-7 2006).

[2] = read-out: Solubility in aqueous PBS Buffer (1X, pH 7.4)
[3] = read-out: Solubility in aqueous PBS Buffer (1X, pH 7.4), ug/mL

T1 sequence (P10144 21-247): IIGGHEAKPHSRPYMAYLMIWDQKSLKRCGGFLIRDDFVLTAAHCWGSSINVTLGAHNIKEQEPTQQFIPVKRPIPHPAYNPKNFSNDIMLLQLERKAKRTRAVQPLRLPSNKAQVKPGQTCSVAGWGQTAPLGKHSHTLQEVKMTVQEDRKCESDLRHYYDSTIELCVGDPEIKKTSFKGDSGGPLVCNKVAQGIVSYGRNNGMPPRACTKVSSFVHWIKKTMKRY

| Structure (SMILES) | pIC50 (human Granzyme B (hGzmB)) | solubility at 24 h [1, 2] | solubility at 24 h [1, 3] |
| --- | --- | --- | --- |
| CC[C@H](C)[C@H](NC(=O)CCN)C(=O)NCC(=O)N1c2ccccc2C[C@H]1C(=O)NCc1nn[nH]n1 [Example A6, (2S)-1-{2-[(2S,3S)-2-(3-Aminopropanamido)-3-Methylpentanamido]Acetyl}-N-(2H-1,2,3,4-Tetrazol-5-Ylmethyl)-2,3-Dihydro-1H-Indole-2-Carboxamide] | 5.00 to 6.00 | > 150 µM | > 78 µg/mL |
| CC[C@H](C)[C@H](NC(=O)CCCN)C(=O)NCC(=O)N1c2ccccc2C[C@H]1C(=O)NCc1nn[nH]n1 [Example A7, (2S)-1-{2-[(2S,3S)-2-(4-Aminobutanamido-3-Methylpentanamido]Acetyl}-N-(2H-1,2,3,4-Tetrazol-5-Ylmethyl)-2,3-Dihydro-1H-Indole-2-Carboxamide Hydrochloride] | 5.00 to 6.00 | 124 µM | 67 µg/mL |
| CC[C@H](C)[C@H](NC(=O)Cc1ccc(N)cc1)C(=O)NCC(=O)N1c2ccccc2C[C@H]1C(=O)NCc1nn[nH]n1 [Example A8, (2S)-1-{2-[(2S,3S)-2-[2-(4-Aminophenyl)Acetamido]-3-Methylpentanamido]Acetyl}-N-(2H-1,2,3,4-Tetrazol-5-Ylmethyl)-2,3-Dihydro-1H-Indole-2-Carboxamide Hydrochloride] | 6.00 to 7.00 | > 150 µM | > 88 µg/mL |
| CC[C@H](C)[C@H](NC(=O)Cc1csc(N)n1)C(=O)NCC(=O)N1c2ccccc2C[C@H]1C(=O)NCc1nn[nH]n1 [Example A10, (2S)-1-{2-[(2S,3S)-2-[2-(2-Amino-1,3-Thiazol-4-Yl)Acetamido]-3-Methylpentanamido]Acetyl}-N-(2H-1,2,3,4-Tetrazol-5-Ylmethyl)-2,3-Dihydro-1H-Indole-2-Carboxamide Hydrochloride] | 6.00 to 7.00 | > 750 µM | > 443 µg/mL |
| CC[C@H](C)[C@H](NC(C)=O)C(=O)NCC(=O)N1c2ccccc2C[C@H]1C(=O)NCc1nn[nH]n1 [Example A15, (2S)-1-{2-[(2S,3S)-2-Acetamido-3-Methylpentanamido]Acetyl}-N-(2H-1,2,3,4-Tetrazol-5-Ylmethyl)-2,3-Dihydro-1H-Indole-2-Carboxamide] | 6.00 to 7.00 | 565 µM | 258 µg/mL |
| CC[C@H](C)[C@H](NC(=O)CCC(=O)O)C(=O)NCC(=O)N1c2ccccc2C[C@H]1C(=O)NCc1c[nH]nn1 [Example A16, 3-{[(1S,2S)-2-Methyl-1-({2-Oxo-2-[(2S)-2-[(1H-1,2,3-Triazol-4-Ylmethyl)Carbamoyl]-2,3-Dihydro-1H-Indol-1-Yl]Ethyl}Carbamoyl)Butyl]Carbamoyl}Propanoic Acid] | > 7.00 | > 750 µM | > 385 µg/mL |
| CC[C@H](C)[C@H](NC(=O)CC(C)(C)CC(=O)O)C(=O)NCC(=O)N1c2ccccc2C[C@H]1C(=O)NCc1nn[nH]n1 [Example A18, 3,3-Dimethyl-4-{[(1S,2S)-2-Methyl-1-({2-Oxo-2-[(2S)-2-[(2H-1,2,3,4-Tetrazol-5-Ylmethyl)Carbamoyl]-2,3-Dihydro-1H-Indol-1-Yl]Ethyl}Carbamoyl)Butyl]Carbamoyl}Butanoic Acid] | > 7.00 | 679 µM | 447 µg/mL |
| CC[C@H](C)[C@H](NC(=O)/C=C\C(=O)O)C(=O)NCC(=O)N1c2ccccc2C[C@H]1C(=O)NCc1nn[nH]n1 [Example A24, (2Z)-3-{[(1S,2S)-2-Methyl-1-({2-Oxo-2-[(2S)-2-[(2H-1,2,3,4-Tetrazol-5-Ylmethyl)Carbamoyl]-2,3-Dihydro-1H-Indol-1-Yl]Ethyl}Carbamoyl)Butyl]Carbamoyl}Prop-2-Enoic Acid] | > 7.00 | 719 µM | 441 µg/mL |
| CC[C@H](C)[C@H](NC(=O)c1ccccc1C(=O)O)C(=O)NCC(=O)N1c2ccccc2C[C@H]1C(=O)NCc1nn[nH]n1 [Example A25, 2-{[(1S,2S)-2-Methyl-1-({2-Oxo-2-[(2S)-2-[(2H-1,2,3,4-Tetrazol-5-Ylmethyl)Carbamoyl]-2,3-Dihydro-1H-Indol-1-Yl]Ethyl}Carbamoyl)Butyl]Carbamoyl}Benzoic Acid] | > 7.00 | 696 µM | 462 µg/mL |
| CC[C@H](C)[C@H](NC(=O)[C@H](O)[C@@H](O)C(=O)O)C(=O)NCC(=O)N1c2ccccc2C[C@H]1C(=O)NCc1nn[nH]n1 [Example A32, (2R,3R)-2,3-Dihydroxy-3-{[(1S,2S)-2-Methyl-1-({2-Oxo-2-[(2S)-2-[(2H-1,2,3,4-Tetrazol-5-Ylmethyl)Carbamoyl]-2,3-Dihydro-1H-Indol-1-Yl]Ethyl}Carbamoyl)Butyl]Carbamoyl}Propanoic Acid] | > 7.00 | > 750 µM | > 410 µg/mL |
| CC[C@H](C)[C@H](NC(=O)Cc1ccc(CC(=O)O)cc1)C(=O)NCC(=O)N1c2ccccc2C[C@H]1C(=O)NCc1nn[nH]n1 [Example A34, 2-[4-({[(1S,2S)-2-Methyl-1-({2-Oxo-2-[(2S)-2-[(2H-1,2,3,4-Tetrazol-5-Ylmethyl)Carbamoyl]-2,3-Dihydro-1H-Indol-1-Yl]Ethyl}Carbamoyl)Butyl]Carbamoyl}Methyl)Phenyl]Acetic Acid] | > 7.00 | > 750 µM | > 443 µg/mL |
| CC[C@H](C)[C@H](NC(=O)C(F)(F)C(F)(F)C(=O)O)C(=O)NCC(=O)N1c2ccccc2C[C@H]1C(=O)NCc1nn[nH]n1 [Example A43, 2,2,3,3-Tetrafluoro-3-{[(1S,2S)-2-Methyl-1-({2-Oxo-2-[(2S)-2-[(2H-1,2,3,4-Tetrazol-5-Ylmethyl)Carbamoyl]-2,3-Dihydro-1H-Indol-1-Yl]Ethyl}Carbamoyl)Butyl]Carbamoyl}Propanoic Acid] | > 7.00 | 583 µM | 342 µg/mL |

Second part, the molecule after the results:

| pIC50 (human Granzyme B (hGzmB)) | solubility at 24 h [1, 2] | solubility at 24 h [1, 3] | Structure (SMILES) |
| --- | --- | --- | --- |
| 6.00 to 7.00 | 594 µM | 323 µg/mL | O=C(Cc1ccccc1)N[C@H](C(=O)NCC(=O)N1c2ccccc2C[C@H]1C(=O)NCc1nn[nH]n1)C1CCCC1 [Example A12, (2S)-1-{2-[(2S)-2-Cyclopentyl-2-(2-Phenylacetamido)Acetamido]Acetyl}-N-(2H-1,2,3,4-Tetrazol-5-Ylmethyl)-2,3-Dihydro-1H-Indole-2-Carboxamide] |
| > 7.00 | 107 µM | 57 µg/mL | CC[C@H](C)[C@H](NC(=O)CCCC(=O)O)C(=O)NCC(=O)N1c2ccccc2C[C@H]1C(=O)NCc1nn[nH]n1 [Example A14, 4-{[(1S,2S)-2-Methyl-1-({2-Oxo-2-[(2S)-2-[(2H-1,2,3,4-Tetrazol-5-Ylmethyl)Carbamoyl]-2,3-Dihydro-1H-Indol-1-Yl]Ethyl}Carbamoyl)Butyl]Carbamoyl}Butanoic Acid] |
| > 7.00 | 672 µM | 391 µg/mL | CC[C@H](C)[C@H](NC(=O)CC1(CC(=O)O)CCCC1)C(=O)NCC(=O)N1c2ccccc2C[C@H]1C(=O)NCc1nn[nH]n1 [Example A19, 2-[1-({[(1S,2S)-2-Methyl-1-({2-Oxo-2-[(2S)-2-[(2H-1,2,3,4-Tetrazol-5-Ylmethyl)Carbamoyl]-2,3-Dihydro-1H-Indol-1-Yl]Ethyl}Carbamoyl)Butyl]Carbamoyl}Methyl)Cyclopentyl]Acetic Acid] |
| 6.00 to 7.00 | 724 µM | 467 µg/mL | CC[C@H](C)[C@H](NC(=O)CN(C)CC(=O)O)C(=O)NCC(=O)N1c2ccccc2C[C@H]1C(=O)NCc1nn[nH]n1 [Example A44, 2-[Methyl({[(1S,2S)-2-Methy-1-({2-Oxo-2-[(2S)-2-[(2H-1,2,3,4-Tetrazol-5-Ylmethyl)Carbamoyl]-2,3-Dihydro-1H-Indol-1-Yl]Ethyl}Carbamoyl)Butyl]Carbamoyl}Methyl)Amino]Acetic Acid] |
| > 7.00 | 682 µM | 359 µg/mL | O=C(O)CCC(=O)N[C@H](C(=O)NCC(=O)N1c2ccccc2C[C@H]1C(=O)NCc1nn[nH]n1)C1CCCC1 [Example A45, 3-{[(S)-Cyclopentyl({2-Oxo-2-[(2S)-2-[(2H-1,2,3,4-Tetrazol-5-Ylmethyl)Carbamoyl]-2,3-Dihydro-1H-Indol-1-Yl]Ethyl}Carbamoyl)Methyl]Carbamoyl}Propanoic Acid] |
